System: SEM cells
Assay: cell viability relative to DMSO control; higher = less cytotoxic
Conditions: 48 h
Summary of the method: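 Cells were incubated for 48 h at 37°C before CellTiter-Glo One luminescence was read. The cells were NOMO1 or SEM (500 cells/well) or P12-Ichikawa (1000 cells/well) leukemia cells, adapted for at least four passages in each medium and seeded in 1536-well plates (5 μl). Dosing used library compounds in DMSO applied by pin over 11 threefold points, 47 μM to 0.79 nM. Viability is the per-plate percentage of DMSO wells, with cell-free wells as background.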

[1] = HPLM + 10% dialyzed FBS, 0.000781 µM
[2] = HPLM + 10% dialyzed FBS, 0.00234 µM
[3] = HPLM + 10% dialyzed FBS, 0.00702 µM
[4] = HPLM + 10% dialyzed FBS, 0.0211 µM
[5] = HPLM + 10% dialyzed FBS, 0.0632 µM
[6] = HPLM + 10% dialyzed FBS, 0.19 µM
[7] = HPLM + 10% dialyzed FBS, 0.569 µM
[8] = HPLM + 10% dialyzed FBS, 1.71 µM
[9] = HPLM + 10% dialyzed FBS, 5.12 µM
[10] = HPLM + 10% dialyzed FBS, 15.4 µM
[11] = HPLM + 10% dialyzed FBS, 46.1 µM
[12] = RPMI 5 mM glucose + 10% FBS, 0.000781 µM
[13] = RPMI 5 mM glucose + 10% FBS, 0.00234 µM
[14] = RPMI 5 mM glucose + 10% FBS, 0.00702 µM
[15] = RPMI 5 mM glucose + 10% FBS, 0.0211 µM
[16] = RPMI 5 mM glucose + 10% FBS, 0.0632 µM
[17] = RPMI 5 mM glucose + 10% FBS, 0.19 µM
[18] = RPMI 5 mM glucose + 10% FBS, 0.569 µM
[19] = RPMI 5 mM glucose + 10% FBS, 1.71 µM
[20] = RPMI 5 mM glucose + 10% FBS, 5.12 µM
[21] = RPMI 5 mM glucose + 10% FBS, 15.4 µM
[22] = RPMI 5 mM glucose + 10% FBS, 46.1 µM
[23] = RPMI 5 mM glucose + 10% dialyzed FBS, 0.000781 µM
[24] = RPMI 5 mM glucose + 10% dialyzed FBS, 0.00234 µM
[25] = RPMI 5 mM glucose + 10% dialyzed FBS, 0.00702 µM
[26] = RPMI 5 mM glucose + 10% dialyzed FBS, 0.0211 µM
[27] = RPMI 5 mM glucose + 10% dialyzed FBS, 0.0632 µM
[28] = RPMI 5 mM glucose + 10% dialyzed FBS, 0.19 µM
[29] = RPMI 5 mM glucose + 10% dialyzed FBS, 0.569 µM
[30] = RPMI 5 mM glucose + 10% dialyzed FBS, 1.71 µM
[31] = RPMI 5 mM glucose + 10% dialyzed FBS, 5.12 µM
[32] = RPMI 5 mM glucose + 10% dialyzed FBS, 15.4 µM
[33] = RPMI 5 mM glucose + 10% dialyzed FBS, 46.1 µM

| Structure (SMILES) | cell viability [1] | cell viability [2] | cell viability [3] | cell viability [4] | cell viability [5] | cell viability [6] | cell viability [7] | cell viability [8] | cell viability [9] | cell viability [10] | cell viability [11] | cell viability [12] | cell viability [13] | cell viability [14] | cell viability [15] | cell viability [16] | cell viability [17] | cell viability [18] | cell viability [19] | cell viability [20] | cell viability [21] | cell viability [22] | cell viability [23] | cell viability [24] | cell viability [25] | cell viability [26] | cell viability [27] | cell viability [28] | cell viability [29] | cell viability [30] | cell viability [31] | cell viability [32] | cell viability [33] |
| --- | --- | --- | --- | --- | --- | --- | --- | --- | --- | --- | --- | --- | --- | --- | --- | --- | --- | --- | --- | --- | --- | --- | --- | --- | --- | --- | --- | --- | --- | --- | --- | --- | --- |
| CC(=O)OC[C@H]1O[C@@H]([S-])[C@H](OC(C)=O)[C@@H](OC(C)=O)[C@@H]1OC(C)=O.CCP(CC)CC.[Au+] | 73.4% | 72.8% | 68.7% | 82.1% | 73.6% | 97.6% | 84% | 83.1% | 15.9% | 6.62% | 6.21% | 91.1% | 75% | 87.3% | 84.8% | 77.8% | 105% | 101% | 88.5% | 6.02% | 6.28% | 5.83% | 78.4% | 85.1% | 78.6% | 80.1% | 77.6% | 87.2% | 84.5% | 69.4% | 7.37% | 6.42% | 5.84% |
| CC(NC(C)(C)C)C(=O)c1cccc(Cl)c1 (configuration not stated) | 94.9% | 120% | 102% | 100% | 109% | 104% | 108% | 64.6% | 127% | 46% | 103% | 106% | 123% | 117% | 108% | 114% | 119% | 127% | 73.2% | 125% | 23.1% | 98.9% | 99.9% | 128% | 123% | 112% | 117% | 140% | 139% | 71.9% | 135% | 35.7% | 126% |
| NC[C@@H]1O[C@H](O[C@H]2[C@@H](O)[C@H](O[C@@H]3[C@@H](O)[C@H](N)C[C@H](N)[C@H]3O[C@H]3O[C@H](CN)[C@@H](O)[C@H](O)[C@H]3N)O[C@@H]2CO)[C@H](N)[C@@H](O)[C@@H]1O.O=S(=O)(O)O.O=S(=O)(O)O.O=S(=O)(O)O | 104% | 99.7% | 103% | 106% | 98.4% | 99.4% | 104% | 91% | 98.7% | 105% | 106% | 92.9% | 105% | 110% | 98.8% | 69.1% | 101% | 101% | 102% | 104% | 94% | 105% | 109% | 115% | 116% | 113% | 90.7% | 104% | 115% | 105% | 108% | 105% | 100% |
| COc1cccc2c1C(=O)c1c(O)c3c(c(O)c1C2=O)C[C@@](O)(C(=O)CO)C[C@@H]3O[C@H]1C[C@H](N)[C@H](O[C@H]2CCCCO2)[C@H](C)O1 | 101% | 106% | 111% | 103% | 102% | 129% | 102% | 81.8% | 13% | 109% | 72.2% | 79.7% | 84.3% | 89.5% | 91% | 65.2% | 96.1% | 66.6% | 44.8% | 7.83% | 95.8% | 59% | 92.9% | 110% | 119% | 123% | 117% | 115% | 95.8% | 77.3% | 18.3% | 126% | 105% |

Reference: the supplement of paper PMC11451515
